Here are results for nine compounds from the NIST ThermoML archive (doi:10.1021/je100652b).

Numbers after ± are expanded uncertainties.

For the data set the following is noted: 101.33 kPa, Liquid; for speed of sound: Sing-around technique in a fixed-path interferometer.

Broadly, the mass density is the mass of a sample divided by its volume. For orientation: speed of sound means the propagation velocity of pressure waves in the medium. On to `CCCCO` [butan-1-ol], for which the mass density is, setting by setting: (298.15 K) 805.91 ± 0.56 kg/m3; (308.15 K) 798.21 ± 0.57 kg/m3. In addition, the speed of sound worked out at 1244 ± 2 m/s (298.15 K) and 1212 ± 2 m/s (308.15 K).

`CCCCCCCO` [heptan-1-ol]: for the setting “298.15 K”, the mass density is 818.91 ± 0.55 kg/m3 and the speed of sound is 1330 ± 2 m/s. Besides, for the setting “308.15 K”, the mass density was found to be 811.94 ± 0.55 kg/m3 and the speed of sound is on record as 1292 ± 2 m/s.

In the case of `c1ccccc1` [benzene], the mass density amounted to 873.58 ± 0.36 kg/m3 (298.15 K) and 862.96 ± 0.38 kg/m3 (308.15 K). The speed of sound runs as follows: (298.15 K) 1300 ± 2 m/s; (308.15 K) 1260 ± 2 m/s.

As to `C1CCCCC1` [cyclohexane], where the note is “298.15 K”, the mass density is listed as 773.86 ± 0.51 kg/m3 and the speed of sound was 1254 ± 2 m/s. Under “308.15 K”, the mass density was found to be 764.46 ± 0.53 kg/m3 and the speed of sound worked out at 1212 ± 2 m/s.

Consider `CCCCCO` [pentan-1-ol], for which the mass density runs as follows: (298.15 K) 810.76 ± 0.56 kg/m3; (308.15 K) 803.41 ± 0.57 kg/m3. For the same compound, the speed of sound (298.15 K) amounted to 1274 ± 2 m/s and the speed of sound (308.15 K) amounted to 1240 ± 2 m/s.

Turning to `Cc1ccccc1` [toluene], where the note is “298.15 K”, the mass density turned out to be 862.21 ± 0.38 kg/m3 and the speed of sound came to 1304 ± 2 m/s. Besides, for the setting “308.15 K”, the mass density is recorded as 852.86 ± 0.39 kg/m3 and the speed of sound was 1262 ± 2 m/s.

`Cc1ccc(C)cc1` [1,4-dimethylbenzene]: under “298.15 K”, the mass density worked out at 856.7 ± 0.39 kg/m3 and the speed of sound was found to be 1314 ± 2 m/s. Also, for the setting “308.15 K”, the mass density worked out at 847.88 ± 0.4 kg/m3 and the speed of sound was 1272 ± 2 m/s.

For `C=C(C)C(=O)OC` [methyl methacrylate], where the note is “298.15 K”, the mass density amounted to 937.6 ± 0.28 kg/m3 and the speed of sound is given as 1182 ± 2 m/s. Moreover, under “308.15 K”, the mass density worked out at 925.7 ± 0.3 kg/m3 and the speed of sound came out at 1152 ± 2 m/s.

With `CCc1ccccc1` [ethylbenzene], under “298.15 K”, the mass density worked out at 862.63 ± 0.38 kg/m3 and the speed of sound is given as 1319 ± 2 m/s. Also, where the note is “308.15 K”, the mass density turned out to be 853.89 ± 0.39 kg/m3 and the speed of sound is 1276 ± 2 m/s.
